For 4 molecules, Activity, Ratio and Tm results are on record in ChEMBL document CHEMBL3217423, “Binding of 9-O-(-amino) alkyl ether analogues of the plant alkaloid berberine to poly(A): insights into self-structure induction” (Medchemcomm, 2011).

Activity calls are given as the source filed them. The rule behind the calls is not given here.

A short description of experiment [1]: Binding affinity to poly(A) tail mRNA (unknown origin) assessed as induction of self-structure formation by circular dichroism analysis. A general note: Circular dichroism is the unequal absorption of left and right circularly polarised light.
Experiment [2] can be described thus: Binding affinity to poly(A) tail mRNA (unknown origin) assessed as induction of self-structure formation by circular dichroic spectroscopy.
Experiment [3] can be described thus: Binding affinity to poly(A) tail mRNA (unknown origin) assessed as apparent binding constant by absorption spectroscopy relative to berberine.
A short description of experiment [4]: Binding affinity to poly(A) tail mRNA (unknown origin) assessed as association constant by isothermal titration calorimetry relative to berberine. For orientation: ITC needs no label: the signal is the heat of the interaction.
Experiment [5] is described as follows: Binding affinity to poly(A) tail mRNA (unknown origin) assessed as melting temperature of poly(A) self-structure by UV absorption/CD melting analysis.

Turning to `COc1ccc2cc3[n+](cc2c1OCCCCCCN)CCc1cc2c(cc1-3)OCO2`, the result in experiment [1] and in experiment [2] was Active. For the same molecule, the Ratio stood at 20 in experiment [3] and 10 in experiment [4]. Also, the Tm in experiment [5] amounted to 59.5 °C.

As for `COc1ccc2cc3[n+](cc2c1OCCCCN)CCc1cc2c(cc1-3)OCO2`, the result in experiment [1] and in experiment [2] was Active. Besides, the Tm in experiment [5] came to 58 °C.

`COc1ccc2cc3[n+](cc2c1OC)CCc1cc2c(cc1-3)OCO2` [BERBERINE]: the outcome in experiment [1] and in experiment [2] was Active. In addition, in experiment [5], the Tm stood at 58 °C.

On to `COc1ccc2cc3[n+](cc2c1OCCN)CCc1cc2c(cc1-3)OCO2`, for which, in experiment [4], the Ratio was 3. The Tm in experiment [5] was determined as 59 °C.
